Laboratory results reported in publication PMC4805251, “Novel Antimicrobial Peptides EeCentrocins 1, 2 and EeStrongylocin 2 from the Edible Sea Urchin Echinus esculentus Have 6-Br-Trp Post-Translational Modifications” (PLoS ONE, 2016).
Read-outs that look alike come from different tables or passages of the source. Ends that are not written are not given here.

Experiments:
Format in all cases: cell-based
Rhodotorula sp. = tested on: Rhodotorula sp.
How it was run: (§1)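 Broth microdilution in potato dextrose broth with 4 × 10^5 spores/ml inoculum; peptides in water tested in two-fold dilutions from 100 to 0.1 μM. MIC taken as lowest concentration with no visible growth; triplicates, natural peptides run once.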

Aureobasidium pullulans = tested on: Aureobasidium pullulans
How it was run: as §1

Saccharomyces cerevisiae = tested on: Saccharomyces cerevisiae
How it was run: as §1

[1] = tested on: Candida albicans (ATCC 10231)
How it was run: as §1

Cladosporium sp. = tested on: Cladosporium sp.
How it was run: as §1

[2] = potato dextrose broth, 24 h at room temperature, visual, no visible fungal growth, value of Table 2, triplicates

With “WGHKLRSSWNKVKHAVKKGAGYASGACRVLGH [EeCentrocin 2 HC]” the “MIC raw data Rhodotorula sp.” value (Rhodotorula sp.; parallel 1 of three) was 3.13 µM, the “MIC raw data Rhodotorula sp.” value (Rhodotorula sp.; parallel 2 of three) was 3.13 µM and the “MIC raw data Rhodotorula sp.” value (Rhodotorula sp.; parallel 3 of three) was 3.13 µM. For the same sequence, the “MIC Rhodotorula sp.” value (Rhodotorula sp.; [2]) was 3.13 µM, the “MIC raw data A. pullulans” value (Aureobasidium pullulans; parallel 1 of three) was 25 µM and the “MIC raw data A. pullulans” value (Aureobasidium pullulans; parallel 2 of three) was 25 µM. The “MIC raw data A. pullulans” value (Aureobasidium pullulans; parallel 3 of three) was 25 µM, the “MIC A. pullulans” value (Aureobasidium pullulans; [2]) was 25 µM and the “MIC raw data S. cerevisiae” value (Saccharomyces cerevisiae; parallel 1 of three) was 12.5 µM. The “MIC raw data S. cerevisiae” value (Saccharomyces cerevisiae; parallel 2 of three) was 12.5 µM, the “MIC raw data S. cerevisiae” value (Saccharomyces cerevisiae; parallel 3 of three) was 12.5 µM and the “MIC S. cerevisiae” value (Saccharomyces cerevisiae; [2]) was 12.5 µM. The “MIC raw data C. albicans” value ([1]; parallel 1 of three) was 50 µM, the “MIC raw data C. albicans” value ([1]; parallel 2 of three) was 50 µM and the “MIC raw data C. albicans” value ([1]; parallel 3 of three) was 25 µM. The “MIC C. albicans” value [1, 2] was 50 µM, the “MIC raw data Cladosporium sp.” value (Cladosporium sp.; parallel 1 of three) was 12.5 µM and the “MIC raw data Cladosporium sp.” value (Cladosporium sp.; parallel 2 of three) was 12.5 µM. The “MIC raw data Cladosporium sp.” value (Cladosporium sp.; parallel 3 of three) was 12.5 µM and the “MIC Cladosporium sp.” value (Cladosporium sp.; [2]) was 12.5 µM.
